The source of these data is patent US6586403B1, “Treating allergic reactions and inflammatory responses with tri-and dipeptides” (Salpep Biotechnology, Inc., priority 2000, dated 2003).

Ends that are not written are not given here.

Experiment [1] deals with CD16b. Put plainly: PAF induced CD16b expression on human neutrophils detected by CD16a.FITC. In kind it is cell-based. The settings on record: 10-11M peptide; PAF 10^-9M (FIG. 11). On the procedure:
(§1) The expression of CD11b and CD16b on the surface of neutrophils are represented as the difference in the mean fluorescence intensity (MFI) measured in cells incubated in the presence of PAF alone and those incubated with 10-11M concentration of peptide and PAF. Many of the tripeptides reduced the expression of CD11b and CD16b on human neutrophils that had been stimulated with platelet activating factor (PAF; 10^-9M).
(§2) Leukocytes were isolated from the blood of normal healthy volunteers. The blood (20 ml) was brought to a final volume of 50 ml with cold lysis buffer (155 mM NH4Cl, 10 mM KHCO3, 1 mM disodium EDTA, pH 7.4). […]
(§3) Once isolated the neutrophils were prepared to a final concentration of […] in phosphate buffered saline (PBS). […] The supernatant is decanted off carefully and 300 μl of PBS is added to the neutrophils and cells are read with a Fluorescence Activated Cell Sorter (FACS).
(§4) The effects of the peptides on CD11b or CD16b expression were evaluated by determining the changes in mean fluorescence intensity (MFI) of cells incubated in the presence of peptide and PAF and the those incubated in presence of PAF alone, after subtracting the background (Control) MFI expressed in cells incubated with neither PAF nor a peptide. […]

A further experiment deals with sensitized rat ileum. In words: Antigen induced contraction of the sensitized rat ileum (intestinal anaphylaxis in vitro). In kind it is cell-based. The settings on record: 10 ig of peptide in bath, 10 min, then 1 mg OA (FIG. 1). On the procedure:
The Biological Response. The addition of antigen (OA) induced a slow tonic contraction of the intestinal (ileal) segments which peaked within 2 to 3 minutes before slowly receding to the baseline tension over 4 to 5 minutes. Urecholine (URE) produced a rapid tonic contraction that reached its maximum in 10 to 15 seconds. […] When FEG was added to the bath the OA/URE ratio was only 0.12±0.04, or 44% of the control response.
Effects of C-terminus substitutions, N-terminus substitutions, aromatic substitution at position 1, and Asp substitution at position 2 in both L and D forms in FEG, and removal of the glycine on inhibition of intestinal anaphylaxis in vitro.
In this in vitro motility study analogues of the tripeptide FEG were examined for their inhibitory effects on an anaphylactic reaction provoked by antigen on intestinal segments isolated from ovalbumin sensitized rats. […] Four to six weeks following sensitization, the terminal ileum was excised and 2 cm sections were mounted in 20 ml organ baths under 0.75 g of tension and the isometric force generated by OA and urecholine (Frosst, Kirkland, QC) was measured using a Grass Force Displacement Transducer FT03 (Quincy, Mass.). […] Anti-anaphylactic properties of FEG and its analogues were determined by adding 10 ig of peptide to a bath and incubating for 10 min. […] OA contractile response was measured at peak contraction. […]

The subject of experiment [2] is CD16b. In words: PAF induced CD16b expression on human neutrophils detected by CD16b.FITC. Type of experiment: cell-based. The settings on record: 10-11M peptide; PAF 10^-9M (FIG. 11). On the procedure: as §1, §2, §3, §4
A further experiment relates to Sprague Dawley rats. Put plainly: Intestinal motility disturbances (MMC disruption) caused by intravenous endotoxin. Type of experiment: in vivo, rat. On the procedure: Intravenous injection of LPS at either 10 or 20 μg/kg disrupted the normal fasting pattern of intestinal MMCs into the characteristic fed pattern which persisted for 85±3 min (n=3) and 105±8 min (n=15), respectively. The disruptions in the MMCs developed within 20±4 min and 17±1 min for the respective 10 and 20 μg/kg doses of LPS. The 20 μg/kg dose of LPS was used for subsequent experiments.
Intestinal Motility. Male and female Sprague Dawley rats, weighing 200-250 g were raised at the Life and Environmental Sciences Animal Resource Centre, The University of Calgary. The rats were maintained with lights on from 7:00 to 19:00 h, and were provided food and water ad libitum. For the intestinal motility experiments lipopolysaccharide (LPS; Salmonella typhosa; Sigma Chemical Co., St. Louis, […].) was injected intravenously at a dose of 20 μg/kg (Helistrom et al, 1997).
For motility recording rats were surgically prepared, as previously described (Mathison et al, 1998), with three bipolar jejunal electrodes under halothane anesthesia following an 18 h fast. A plastic cannula, with three pairs of Teflon-coated stainless steel bipolar electrodes, was positioned in an intrascapular region. The wires were subcutaneously tunnelled to the anterior abdominal wall, entering the peritoneal cavity through a stab incision. […] An eight-channel chart recorder (Hewlett-Packard, model 7858A) simultaneously recorded the electric signals generated by the migrating myoelectric complexes (MMCs), for three cycles before and 120 min after intravenous challenge with 20 μg/kg of LPS. […]
Changes in intestinal motility were detected by modifications in jejunal myoelectric activity from the standard MMCs that occur in fasting animals to a totally disrupted pattern of intense, irregular myoelectric electricity that developed with the endotoxic reaction. Before and after challenge with LPS, the cycle period of MMCs was determined by measuring the time between the ends of phase III activity (the marked increase in regular phasic myoelectric and motor activity) of successive MMCs.

The conditions of experiment [3]: doses as low as 1 μg/kg; cited from earlier work.
For another experiment, the system named is leukocytes. The settings on record: in vivo; cited from earlier work.

As to H-D-cha-D-glu-NH2 [(cha)e(NH2)], the “CD16b expression detected by CD16a.FITC” value with CD16b [1] is recorded as “reduced”.

On to H-D-cha-D-glu-OH [(cha)e], for which, in the experiment with sensitized rat ileum, the “biological activity: inhibition of antigen induced contraction of the ileum” value is on record as “active”. In addition, the “CD16b expression detected by CD16b.FITC” value in the experiment on CD16b [2] is “reduced”.

H-D-phe-D-glu-Gly-NH2 [feG(NH2)]: in the experiment with Sprague Dawley rats (FIG. 3b), the “inhibition of LPS induced disruption of the MMCs, dose response” value is given as “very potent”. Moreover, the “CD16b expression detected by CD16a.FITC” value in the experiment with CD16b [1] is reported as “reduced”.

As to TDIFEGG [SGP-T], in the experiment on Sprague Dawley rats (intravenous dose of 350 μg/kg), the “duration of MMC disruption” value is on record as “significantly reduced”. In the experiment on Sprague Dawley rats (intravenous, 100 μg/kg, 20 min before LPS 20 μg/kg iv), the “duration of LPS disrupted intestinal MMCs” value is “ineffective”. Further, in experiment [3], the lipopolysaccharide induced hypotension result is “inhibits”. For the same substance, in the experiment on leukocytes, the “rolling of leukocytes on mesenteric venules induced by LPS and histamine” value was “prevents”.
